“Also recorded” adds a separate entry of the source.
Assays:
eczema (in dogs) = test: Treatment of eczema in dogs with ointment (Example 2); conditions: hydrophilic ointment 0.1%, externally applied
[1] = Relative clinical effect of ACH (dexamethasone equivalent); conditions: for Equivalent (dexamethasone equivalent): dexamethasone taken as unity
Source text: The relative amounts of ACH and TSH-releasing hormones may be determined according to the particular dosage form, the disease to be treated and other factors. Generally speaking, the ratio is about 1 (dexamethasone equivalent): 0.05 to 5, advantageously 0.05 to 2, and especially 0.1 to 1. The preferred ratio in each dosage form is; in the case of injections, about 1 (dexamethasone equivalent): 0.05 to 1, advantageously 0.1 to 1; in the case of oral preparations, about 1 (dexamethasone equivalent): 1 to 5, advantageously 1 to 2; and in the case of topical preparations, infusions and implants, about 1 (dexamethasone equivalent): 0.5 to 5, advantageously 0.5 to 2. The `dexamethasone equivalent` is an index number representing the relative clinical effect of any ACH with the effect of dexamethasone being taken as unity.

[2] = relative clinical effect of ACH; cited from earlier work
[3] = tested on: chronic moist dermatitis (in dogs); conditions: oral tablets; Akitaken, 25 kg
Method: Diagnosis: Chronic moist dermatitis
Therefore, on the next day one tablet containing 0.5 mg of dexamethasone and 1 mg of TRH tartrate was orally administered. […] As an adjunct to the medication, the dog was placed on a controlled regimen.

Compound	therapeutic result (eczema (in dogs); 4 dogs with exudative eczema)	adverse response (eczema (in dogs); dogs with exudative eczema)	clinical efficacy / potency compared with dexamethasone [1]	Equivalent (dexamethasone equivalent) [1]	Clinical effect [2]	therapeutic response [3]
C[C@@H]1C[C@H]2[C@@H]3CCC4=CC(=O)C=C[C@]4(C)[C@@]3(F)[C@@H](O)C[C@]2(C)[C@@]1(O)C(=O)COP(=O)(O)O [dexamethasone phosphate]	a passing mitigation of inflammation or itchiness; also recorded: substantially no successful therapeutic result was obtained	an increase in the amount of exudate				
C[C@]12C=CC(=O)C=C1CC[C@H]1[C@@H]3C[C@@H](O)[C@](O)(C(=O)CO)[C@@]3(C)C[C@H](O)[C@@]12F [Triamcinolone, 9α-fluoro-16α-hydroxyprednisolone]			one-sixth	6	5.0	
C[C@H]1C[C@@H]2[C@H]([C@@H](O)C[C@@]3(C)[C@H]2CC[C@]3(O)C(=O)CO)[C@@]2(C)C=CC(=O)C=C12 [Methylprednisolone, 6α-methylprednisolone]				6	5.0	
C[C@H]1C[C@H]2[C@@H]3CCC4=CC(=O)C=C[C@]4(C)[C@@]3(F)[C@@H](O)C[C@]2(C)[C@@]1(O)C(=O)CO [Betamethasone, 9α-fluoro-16α-methylprednisolone]			as potent as dexamethasone	1	30	
C[C@@H]1C[C@H]2[C@@H]3CCC4=CC(=O)C=C[C@]4(C)[C@@]3(F)[C@@H](O)C[C@]2(C)[C@@]1(O)C(=O)CO [Dexamethasone, 9α-fluoro-16α-methylprednisolone]				1	30.0	failed to elicit a response
C[C@]12C=CC(=O)C=C1CC[C@@H]1[C@@H]2[C@@H](O)C[C@@]2(C)[C@H]1CC[C@]2(O)C(=O)CO [Prednisolone, prednisolone]				7.5	4.0	
C[C@]12CCC(=O)C=C1CC[C@@H]1[C@@H]2[C@@H](O)C[C@@]2(C)[C@H]1CC[C@]2(O)C(=O)CO [Hydrocortisone]				30	1.0	
C[C@@H]1C[C@H]2[C@@H]3C[C@H](F)C4=CC(=O)C=C[C@]4(C)[C@H]3[C@@H](O)C[C@]2(C)[C@@]1(O)C(=O)CO [Paramethasone, 6α-fluoro-16α-methylprednisolone]				3	10.0	

From patent US4112073A, “Medicinal composition comprising adrenal cortical hormone and thyroid stimulating hormone releasing hormone” (Takeda Chemical Industries, Ltd., priority 1975, dated 1978)
